Source: US20020120111A1, “Dwf5 mutants” (priority 2000, published 2002)

How the values were obtained:
dwf5-1 plants = assay: biochemical complementation of dwf5-1 plants with brassinolide and its biosynthetic intermediates (pedicel length); type: in vivo, Arabidopsis; settings: for dwf5 pedicel length compared to a water-treated control: exogenous application, pedicel length measured 7 days after application (n=15), FIG. 2
Procedure: Standard procedures for plant growth, measurements on floral organs, scoring the number of seeds in a silique, biochemical complementation tests with Brassinosteroids, analysis of endogenous Brassinosteroids, and 13C-labeled mevalonic acid feeding experiments have been described previously (Choe, et al., 1999b). […] The ability of Brassinosteroids to rescue the phenotype of dwf5 was tested. The data presented in FIG. 2 show the biochemical complementation of dwf5-1 plants with brassinolide (BL) and its biosynthetic intermediates. […] The length of pedicels was measured 7 days after application (n=15). Data points represent the average with one standard deviation. Further, the BR biosynthetic intermediate 6-deoxocathasterone (6-DeoxoCT), and the synthetic compound 22-hydroxycampesterol (22-OHCR) induced pedicel growth up to 80% of wild-type length.

dwf5-1 seeds = assay: seed germination on agar-solidified Murashige and Skoog media; type: in vivo, Arabidopsis; settings: germination media supplemented with 10^−7 M brassinolide; without it <60% of dwf5-1 seeds germinated vs >90% of wild type
Text: The reduced germination of dwf5 seeds may be a secondary effect of retarded growth, or possibly DWF5 is involved in seed development and/or germination.

SMILES	dwf5 pedicel length compared to a water-treated control (dwf5-1 plants)	rescue of the length of dwf5 pedicels to that of wild type (dwf5-1 plants; BL application)	correction of reduced germination of dwf5 seeds (dwf5-1 seeds)
CC(C)[C@H](C)C[C@H](O)[C@@H](C)[C@H]1CC[C@H]2[C@@H]3CC[C@H]4C[C@@H](O)CC[C@]4(C)[C@H]3CC[C@]12C [6-deoxocathasterone]	significant increases		
CC(C)[C@H](C)C[C@H](O)[C@@H](C)[C@H]1CC[C@H]2[C@@H]3CC=C4C[C@@H](O)CC[C@]4(C)[C@H]3CC[C@]12C [22-hydroxycampesterol]	significant increases		
CC(C)[C@H](C)[C@@H](O)[C@H](O)[C@@H](C)[C@H]1CC[C@H]2[C@@H]3COC(=O)[C@H]4C[C@H](O)[C@H](O)C[C@]4(C)[C@H]3CC[C@]12C [brassinolide]	significant increases	completely rescued	partially corrected
